Experimental data: patent US20130259835A1, “BIFIDOBACTERIUM ADOLESCENTIS SPM0212 HAVING ANTIVIRAL ACTIVITY FOR HEPATITIS B VIRUS, AND PHARMACEUTICAL COMPOSITION FOR PREVENTING AND TREATING HEPATITIS B COMPRISING THEREOF” (SAHMYOOK UNIVERSITY INDUSTRY-ACADEMIC COOPERATION, priority 2011, published 2013)

How the values were obtained:
[1] = tested on: Bifidobacterium adolescentis SPM1606; experiment: Antibiotics sensitivity, agar dilution MIC; type: cell-based; settings: strain SPM1606; Table 5
Protocol: (§1) Antibiotics sensitivity test was performed for comparative analysis of phenotypes of the lactobacillus strain separated in Example 1 and standard strains purchased from KCTC. In order to find out the minimum inhibitory concentrations (MICs) of 18 kinds of antibiotics (ampicillin, mupirocin, amoxicillin/clavulanic acid, oxacillin, cefonicid, cefazolin, ceftazidime, cefotaxime, ceftriaxone, tigecyclin, streptomycin, vancomycin, teicoplanin, daptomycin, linezolid, clindamycin, quinupristin/dalfopristin and tobramycin), agar dilution method was performed according to the Clinical and Laboratory Standards Institute (CLSI, 2003), and the results were listed in Tables 4 and 5.

[2] = tested on: Bifidobacterium adolescentis SPM1601; experiment: Antibiotics sensitivity, agar dilution MIC; type: cell-based; settings: strain SPM1601; Table 5
Protocol: as §1

[3] = tested on: Bifidobacterium longum KCTC3128; experiment: Antibiotics sensitivity, agar dilution MIC; type: cell-based; settings: strain KCTC3128; Table 5
Protocol: as §1

[4] = tested on: Bifidobacterium adolescentis SPM1307-A; experiment: Antibiotics sensitivity, agar dilution MIC; type: cell-based; settings: strain SPM1307-A; Table 5
Protocol: as §1

[5] = tested on: Bifidobacterium pseudocatenulatum SPM1309; experiment: Antibiotics sensitivity, agar dilution MIC; type: cell-based; settings: strain SPM1309; Table 5
Protocol: as §1

[6] = tested on: Bifidobacterium longum SPM1206; experiment: Antibiotics sensitivity, agar dilution MIC; type: cell-based; settings: strain SPM1206; Table 5
Protocol: as §1

[7] = tested on: Bifidobacterium adolescentis KCTC3352; experiment: Antibiotics sensitivity, agar dilution MIC; type: cell-based; settings: strain KCTC3352; Table 5
Protocol: as §1

[8] = tested on: Bifidobacterium longum SPM1207; experiment: Antibiotics sensitivity, agar dilution MIC; type: cell-based; settings: strain SPM1207; Table 5
Protocol: as §1

[9] = tested on: Bifidobacterium pseudocatenulatum SPM1204; experiment: Antibiotics sensitivity, agar dilution MIC; type: cell-based; settings: strain SPM1204; Table 5
Protocol: as §1

[10] = tested on: Bifidobacterium pseudocatenulatum KCTC3223; experiment: Antibiotics sensitivity, agar dilution MIC; type: cell-based; settings: strain KCTC3223; Table 5
Protocol: as §1

[11] = tested on: Bifidobacterium adolescentis SPM0308; experiment: Antibiotics sensitivity, agar dilution MIC; type: cell-based; settings: strain SPM0308; Table 5
Protocol: as §1

[12] = tested on: Bifidobacterium adolescentis SPM1604; experiment: Antibiotics sensitivity, agar dilution MIC; type: cell-based; settings: strain SPM1604; Table 5
Protocol: as §1

[13] = tested on: Bifidobacterium adolescentis SPM0214; experiment: Antibiotics sensitivity, agar dilution MIC; type: cell-based; settings: strain SPM0214; Table 5
Protocol: as §1

[14] = tested on: Bifidobacterium adolescentis SPM1005; experiment: Antibiotics sensitivity, agar dilution MIC; type: cell-based; settings: strain SPM1005; Table 5
Protocol: as §1

[15] = tested on: Bifidobacterium adolescentis SPM1608; experiment: Antibiotics sensitivity, agar dilution MIC; type: cell-based; settings: strain SPM1608; Table 5
Protocol: as §1

[16] = tested on: Bifidobacterium adolescentis SPM1605; experiment: Antibiotics sensitivity, agar dilution MIC; type: cell-based; settings: strain SPM1605; Table 5
Protocol: as §1

[17] = tested on: Bifidobacterium longum SPM1205; experiment: Antibiotics sensitivity, agar dilution MIC; type: cell-based; settings: strain SPM1205; Table 5
Protocol: as §1

[18] = tested on: Bifidobacterium adolescentis SPM0212; experiment: Antibiotics sensitivity, agar dilution MIC; type: cell-based; settings: strain SPM0212; Table 5
Protocol: as §1

hepatitis B virus = settings: administered 3 times a week for at least 3 months; average; cited from earlier work

CN[C@H](CC(C)C)C(=O)N[C@H]1C(=O)N[C@@H](CC(N)=O)C(=O)N[C@H]2C(=O)N[C@H]3C(=O)N[C@H](C(=O)N[C@H](C(=O)O)c4cc(O)cc(O)c4-c4cc3ccc4O)[C@H](O)c3ccc(c(Cl)c3)Oc3cc2cc(c3O[C@@H]2O[C@H](CO)[C@@H](O)[C@H](O)[C@H]2O[C@H]2C[C@](C)(N)[C@H](O)[C@H](C)O2)Oc2ccc(cc2Cl)[C@H]1O [VAN, vancomycin]
4 μl/Ml: Minimum inhibitory concentrations (MICs) [3] | Minimum inhibitory concentrations (MICs) [10]
≦0.06 μl/Ml: Minimum inhibitory concentrations (MICs) [1] | Minimum inhibitory concentrations (MICs) [12]
2 μl/Ml: Minimum inhibitory concentrations (MICs) [2] | Minimum inhibitory concentrations (MICs) [4] | Minimum inhibitory concentrations (MICs) [5] | Minimum inhibitory concentrations (MICs) [6] | Minimum inhibitory concentrations (MICs) [7] | Minimum inhibitory concentrations (MICs) [8] | Minimum inhibitory concentrations (MICs) [9] | Minimum inhibitory concentrations (MICs) [11] | Minimum inhibitory concentrations (MICs) [13] | Minimum inhibitory concentrations (MICs) [14] | Minimum inhibitory concentrations (MICs) [15] | Minimum inhibitory concentrations (MICs) [16] | Minimum inhibitory concentrations (MICs) [17] | Minimum inhibitory concentrations (MICs) [18]

interferon-α
20%: patients with treatment effect of inhibiting the virus replication (hepatitis B virus)

teicoplanin [TEC]
1: Minimum inhibitory concentrations (MICs) [8]
≦0.06 μl/Ml: Minimum inhibitory concentrations (MICs) [1] | Minimum inhibitory concentrations (MICs) [12]
1 μl/Ml: Minimum inhibitory concentrations (MICs) [6] | Minimum inhibitory concentrations (MICs) [14] | Minimum inhibitory concentrations (MICs) [16]
0.5 μl/Ml: Minimum inhibitory concentrations (MICs) [4] | Minimum inhibitory concentrations (MICs) [17]
2 μl/Ml: Minimum inhibitory concentrations (MICs) [2] | Minimum inhibitory concentrations (MICs) [3] | Minimum inhibitory concentrations (MICs) [7] | Minimum inhibitory concentrations (MICs) [9] | Minimum inhibitory concentrations (MICs) [10] | Minimum inhibitory concentrations (MICs) [11] | Minimum inhibitory concentrations (MICs) [13] | Minimum inhibitory concentrations (MICs) [15] | Minimum inhibitory concentrations (MICs) [18]
0.25 μl/Ml: Minimum inhibitory concentrations (MICs) [5]
